The values below come from article PMC11513924, “Addressing the Intracellular Vestibule of the Plasmodial Lactate Transporter PfFNT by p-Substituted Inhibitors Amplifies In Vitro Activity” (Journal of Medicinal Chemistry, 2024).

Read-outs that look alike come from different tables or passages of the source.

The target in data set [1] is T1, PfFNT (Plasmodium falciparum, UniProt O77389).
T1 construct: expressed in transfected cells; membranes solubilized
T1 sequence (O77389 1-309): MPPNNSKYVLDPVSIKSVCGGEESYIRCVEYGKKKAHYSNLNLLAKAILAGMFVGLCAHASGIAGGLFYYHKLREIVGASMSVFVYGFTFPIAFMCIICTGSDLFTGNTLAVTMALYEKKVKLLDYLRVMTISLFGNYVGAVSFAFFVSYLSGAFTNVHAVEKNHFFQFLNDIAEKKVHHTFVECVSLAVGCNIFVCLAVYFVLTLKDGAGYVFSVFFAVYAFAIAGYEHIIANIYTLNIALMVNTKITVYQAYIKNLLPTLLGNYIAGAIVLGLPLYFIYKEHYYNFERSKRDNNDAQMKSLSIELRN
The experiment in a line: Fluorescence cross-correlation spectroscopy (FCCS) competition binding to solubilized PfFNT-GFP. Summed up: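 Solubilized membranes from stably transfected cells expressing C-terminally GFP-tagged PfFNT were competed against BH267.meta-DY647 tracer, with competitor titrated from 100 pM to 100 μM. IC50 came from the dual-labeled complex concentration, recorded 10 × 5 s with 488/633 nm excitation; Ki calculated by Cheng-Prusoff from the tracer KD.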

The target of data set [2] is T1, PfFNT. Description: Yeast-based PfFNT 14C-lactate transport assay. Type of data set: cell-based. The procedure: Lactate transport functionality of PfFNT was assayed as described before.[4] Briefly, Saccharomyces cerevisiae W303-1A jen1Δady2Δcells[32] (MATa, can1-100, ade2-loc, his3-11-15, leu2-3,-112, trp1-1-1, ura3-1, jen1::kanMX4, ady2::hphMX4) kindly provided by M. Casal expressing PfFNT was grown at 29 °C to an OD600 of 1 (±0.1). Harvested cells were resuspended to an OD600 of 50 (±5) in 50 mM HEPES/Tris, pH 6.8 (±0.1). 10–15 min prior to the assay, 80 μL of yeast suspension were added to 1 μL of DMSO with or without inhibitor in a 1.5 mL reaction tube at 18 °C. Twenty μL of L-lactate solution spiked with [1-^14C]-L-lactate (Hartmann Analytic) was added yielding a 1 mM inward gradient with 0.04 μCi label. Transport was stopped after 30 s by abrupt dilution with 1 mL of ice-cold water, vacuum filtration via GF/C filter membranes (Whatman), and washing with 7 mL of ice-cold water. The radio label was analyzed by liquid scintillation counting in 3 mL of scintillation cocktail (Rotiszint eco plus, Carl Roth) using a Packard TriCarb 2900 TR (PerkinElmer Inc.).
Transport assays in yeast were done in triplicate biological replicates. At least nine technical replicates were measured around the IC50 value, concentrations with no or full inhibition were determined from at least three technical replicates. EC50-values were determined from 2 to 4 biological replicates. IC50 and EC50 curves were fitted by the Hill equation with variable slope (Graph Pad Prism 10). Error bars denote ± SEM (for n ≥ 3) or ± range (for n = 2). For the EC50-value of 7a the error of the fitting of the curve is given. Cytotoxicity was determined from biological triplicates; error is shown as SEM.

The nature of data set [3]: Microsomal clearance and half-life. Type of data set: in vitro ADME, human. To be noted: for human liver microsomes Clint / half-life at 1 µM: 1 μM compound, 0.4 mg mL^–1 protein; for half-life at 1 µM: human, pooled human liver microsomes, pH 7.4, read-out: human liver microsomes t1/2. The procedure:
(§1) Clearance, half-life and plasma protein binding were assayed at TGC LifeScience, Kolkata, India, as described before.[36] Test compounds were incubated in duplicate in 96-well plates at 1 μM concentration with pooled human liver microsomes in 0.1 M phosphate buffer, pH 7.4 (0.4 mg mL^–1 final protein concentration; XenoTech, Lenexa, KS) in the presence and absence of 1 mM NADPH. Metabolism reactions were stopped by addition of 300 μL of ice-cold acetonitrile containing carbamazepine at 0.0236 μg mL^–1 as an internal standard, collection and analysis of the supernatant by LC–MS/MS (Agilent Rapid Resolution HPLC, AB SCIEX 4500 MS). The relative loss of the test compound over time was used to determine the first order rate constant for calculation of the in vitro intrinsic clearance and half-life.[37] Plasma protein binding was determined by ultracentrifugation from pooled human plasma spiked with 5 μM test compound. Aliquots were transferred immediately (total plasma concentration) or after 1 h at 37 °C (protein bound fraction) to ice-cold acetonitrile containing 0.0236 μg mL^–1 carbamazepine as an internal standard, ultracentrifuged for 4 h at 37 °C (Beckman Optima L-80XP), and analyzed by LC–MS/MS (Agilent Rapid Resolution HPLC, AB SCIEX 4500 QTRAP MS).
(Liver microsomes are vesicles of endoplasmic reticulum, rich in cytochrome P450 enzymes.)

The subject of another data set is albumin. Description: Plasma protein (albumin) binding by ultracentrifugation. To be noted: pooled human plasma; for albumin binding: 5 μM. Type of data set: in vitro ADME. The procedure:
as §1

The test system of another data set is HepG2 cells. Type of data set: cell-based. The conditions noted are these: human. The procedure:
(§2) HEK293T and HepG2 cells were precultured in Dulbecco’s modified Eagle medium with 10% fetal bovine serum (FBS, Gibco, #10270106) in 96-well plates (Sarstedt, TC-treated, #83.3924) at a density of 20,000 cells per well. For ATP quantification, commercial CellTiterGlo was used according to the manufacturer’s instructions. For the resazurin assay, the culture medium was removed, and the cells were incubated in 120 μL of a 66 μM resazurin solution in PBS (SigmaAldrich, #R7017) at 37 °C for 2 h, for fluorescence read-out (λex/λem = 544/590 nm) using a microplate reader (Spark, Tecan Group). Nuclei were counted by microscopy (ImageXpress MicroXL, Molecular Devices) after fixation with 4% paraformaldehyde in PBS, and 15 min incubation at room temperature with Hoechst33342. Quantification was done using the “Cell Proliferation High-Throughput” algorithm (MetaXpress Software, Molecular Devices). All values were normalized to vehicle control (DMSO).

A further data set relates to HEK293 cells. The class given is cell-based. The conditions noted are these: human. The procedure: as §2

As a reminder, the Ki is the equilibrium dissociation constant of an inhibitor or competing ligand from its target. Lower therefore signals higher affinity. As a reminder, the IC50 is the concentration that gives 50% inhibition.

Consider `CCCNc1ccc(C(=O)/C=C(\O)C(F)(F)C(F)(F)F)cn1` [7e, 4,4,5,5,5-Pentafluoro-3-hydroxy-1-(6-(propylamino)pyridin-3-yl)pent-2-en-1-one], for which the inhibition constant (Ki) at PfFNT [1] stood at 22 ± 8 nM. Moreover, at PfFNT [2] (14C-lactate transport, PfFNT wild type, read-out: IC50 (transport, yeast)), the IC50 came out at 200 ± 20 nM. Also, in data set [3], the “human liver microsomes Clint” value was determined as 462.00 mL min^–1 kg^–1 and the half-life at 1 µM turned out to be 0.05 h. In the data set with albumin, the “unbound fraction in plasma” value amounted to 1.54% and the albumin binding stood at 98.46%. The “concentration above which nuclei count (proliferation) starts to decline slightly” value (“concentration above which nuclei count” for short) in the data set on HepG2 cells is on record as “above 10 μM”. In the data set with HEK293 cells, the “concentration above which nuclei count” value is given as “above 10 μM”.
Molecule `CC(=O)Nc1ccc(C(=O)/C=C(\O)C(F)(F)C(F)(F)F)cn1` [8a, N-[5-(4,4,5,5,5-Pentafluoro-3-hydroxypent-2-enoyl)pyridin-2-yl]acetamide] came in with an inhibition constant Ki on PfFNT [1] of 35 ± 8 nM. Besides, the half-inhibitory concentration (IC50) on PfFNT [2] is 210 ± 10 nM. For the same molecule, in data set [3], the “human liver microsomes Clint” value was 10.64 mL min^–1 kg^–1 and the half-life at 1 µM was 2.17 h. The “microsomal clearance, times faster than that of 2” value in data set [3] (human liver microsomes) is listed as 2.7 times. Moreover, in the data set on albumin, the “unbound fraction in plasma” value came out at 6.31% and the albumin binding was found to be 93.69%. In addition, in the data set on HepG2 cells, the “concentration above which nuclei count” value is reported as “above 10 μM”. For the same molecule, the “concentration above which nuclei count” value with HEK293 cells is recorded as “above 10 μM”.
